Test results taken from ChEMBL document CHEMBL1124625, “Flavones. 2. Synthesis and structure-activity relationship of flavodilol and its analogues, a novel class of antihypertensive agents with catecholamine depleting properties” (J Med Chem, 1989).
Calls of active or inactive are those of the source. The rule behind the calls is not given here.

How the values were obtained:
Rattus norvegicus [1] = assay: % decrease in hypothalamus dopamine in anesthetized spontaneously hypertensive rats(SHR) at 5 hours after administration of 8 mg/kg dose perorally; assay type: functional; settings: route oral
Rattus norvegicus [2] = assay: % decrease in heart norepinephrine in anesthetized spontaneously hypertensive rats(SHR) at 5 hours after administration of 4 mg/kg dose perorally; assay type: functional; settings: route oral
Rattus norvegicus [3] = assay: % decrease in hypothalamus norepinephrine in anesthetized spontaneously hypertensive rats(SHR) at 5 hours after administration of 17.5 mg/kg dose perorally; assay type: functional; settings: route oral
Rattus norvegicus [4] = assay: % decrease in heart norepinephrine in anesthetized spontaneously hypertensive rats(SHR) at 5 hours after administration of 75 mg/kg dose perorally; assay type: functional; settings: route oral
Rattus norvegicus [5] = assay: % decrease in systolic blood pressure (SBP) in anesthetized spontaneously hypertensive rats(SHR) after administration of 17.5 mg/kg dose perorally; data statistically significant; settings: route oral
Rattus norvegicus [6] = assay: Systolic blood pressure (SBP) in anesthetized spontaneously hypertensive rats(SHR) at 7.5 hours after administration of 35 mg/kg dose perorally; assay type: functional; settings: route oral
Rattus norvegicus [7] = assay: % decrease in heart norepinephrine in anesthetized spontaneously hypertensive rats(SHR) at 5 hours after administration of 8 mg/kg dose perorally; assay type: functional; settings: route oral
Rattus norvegicus [8] = assay: % decrease in hypothalamus dopamine in anesthetized spontaneously hypertensive rats(SHR) at 5 hours after administration of 17.5 mg/kg dose perorally; assay type: functional; settings: route oral
Adrenergic receptor beta = Adrenergic receptor beta (Rattus norvegicus, UniProt P18090+P10608+P26255)
Description: Inhibition constant from beta adrenergic receptor binding assay

Rattus norvegicus [9] = assay: Systolic blood pressure (SBP) in anesthetized spontaneously hypertensive rats (SHR) before administration of 75 mg/kg dose perorally.; assay type: functional; parameters: unit: mmHg; settings: route oral
Rattus norvegicus [10] = assay: Systolic blood pressure (SBP) in anesthetized spontaneously hypertensive rats(SHR) at 7.5 hours after administration of 75 mg/kg dose perorally; settings: route oral
Rattus norvegicus [11] = assay: % decrease in hypothalamus norepinephrine in anesthetized spontaneously hypertensive rats(SHR) at 5 hours after administration of 8 mg/kg dose perorally; assay type: functional; settings: route oral
Rattus norvegicus [12] = assay: % decrease in hypothalamus DA in anesthetized spontaneously hypertensive rats(SHR) at 5 hours after administration of 35 mg/kg dose perorally; settings: route oral
Rattus norvegicus [13] = assay: Systolic blood pressure (SBP) in anesthetized spontaneously hypertensive rats(SHR) before administration of 35 mg/kg dose perorally; assay type: functional; settings: route oral
Rattus norvegicus [14] = assay: % decrease in hypothalamus dopamine in anesthetized spontaneously hypertensive rats(SHR) at 5 hours after administration of 75 mg/kg dose perorally; assay type: functional; settings: route oral
Rattus norvegicus [15] = assay: % decrease in systolic blood pressure (SBP) in anesthetized spontaneously hypertensive rats(SHR) after administration of 75 mg/kg dose perorally; settings: route oral
Rattus norvegicus [16] = assay: % decrease in heart norepinephrine in anesthetized spontaneously hypertensive rats(SHR) at 5 hours after administration of 17.5 mg/kg dose perorally; assay type: functional; settings: route oral
Rattus norvegicus [17] = assay: % decrease in heart norepinephrine in anesthetized spontaneously hypertensive rats(SHR) at 5 hours after administration of 35 mg/kg dose perorally; assay type: functional; settings: route oral
Rattus norvegicus [18] = assay: % decrease in heart 5-HT in anesthetized spontaneously hypertensive rats(SHR) at 5 hours after administration of 8 mg/kg dose perorally; assay type: functional; settings: route oral
Rattus norvegicus [19] = assay: % decrease in hypothalamus norepinephrine in anesthetized spontaneously hypertensive rats(SHR) at 5 hours after administration of 4 mg/kg dose perorally; assay type: functional; settings: route oral
Rattus norvegicus [20] = assay: Systolic blood pressure (SBP) in anesthetized spontaneously hypertensive rats(SHR) before administration of 17 mg/kg dose, perorally; assay type: functional; settings: route oral
Rattus norvegicus [21] = assay: % decrease in hypothalamus norepinephrine in anesthetized spontaneously hypertensive rats(SHR) at 5 hours after administration of 35 mg/kg dose perorally; assay type: functional; settings: route oral
Rattus norvegicus [22] = assay: % decrease in systolic blood pressure (SBP) in anesthetized spontaneously hypertensive rats(SHR) after administration of 4 mg/kg dose perorally; settings: route oral
Rattus norvegicus [23] = assay: % decrease in heart 5-HT in anesthetized spontaneously hypertensive rats(SHR) at 5 hours after administration of 35 mg/kg dose perorally; value significantly different was control; assay type: functional; settings: route oral
Rattus norvegicus [24] = assay: % decrease in hypothalamus dopamine in anesthetized spontaneously hypertensive rats(SHR) at 5 hours after administration of 4 mg/kg dose perorally; assay type: functional; settings: route oral
Rattus norvegicus [25] = assay: % decrease in systolic blood pressure (SBP) in anesthetized spontaneously hypertensive rats(SHR) after administration of 8 mg/kg dose perorally; settings: route oral
Rattus norvegicus [26] = assay: % decrease in heart 5-HT in anesthetized spontaneously hypertensive rats(SHR) at 5 hours after administration of 17.5 mg/kg dose perorally; value significantly different was control; assay type: functional; settings: route oral
Rattus norvegicus [27] = assay: Systolic blood pressure (SBP) in anesthetized spontaneously hypertensive rats(SHR) at 7.5 hours after administration of 17 mg/kg dose, perorally; assay type: functional; settings: route oral
Rattus norvegicus [28] = assay: % decrease in heart 5-HT in anesthetized spontaneously hypertensive rats(SHR) at 5 hours after administration of 75 mg/kg dose perorally; value significantly different was control; assay type: functional; settings: route oral
Rattus norvegicus [29] = assay: % decrease in heart 5-HT in anesthetized spontaneously hypertensive rats(SHR) at 5 hours after administration of 4 mg/kg dose perorally; assay type: functional; settings: route oral
Rattus norvegicus [30] = assay: % decrease in hypothalamus norepinephrine in anesthetized spontaneously hypertensive rats(SHR) at 5 hours after administration of 75 mg/kg dose perorally; assay type: functional; settings: route oral
Rattus norvegicus [31] = assay: % decrease in adrenal epinephrine in anesthetized spontaneously hypertensive rats(SHR) at 3 hours after administration of 150 mg/kg dose perorally; assay type: functional; settings: route oral
Rattus norvegicus [32] = assay: % decrease in brain norepinephrine in anesthetized spontaneously hypertensive rats(SHR) at 24 hours after administration of 75 mg/kg dose perorally; assay type: functional; settings: route oral
Rattus norvegicus [33] = assay: % decrease in heart norepinephrine in anesthetized spontaneously hypertensive rats(SHR) at 24 hours after administration of 150 mg/kg dose perorally; assay type: functional; settings: route oral
Rattus norvegicus [34] = assay: % decrease in heart norepinephrine in anesthetized spontaneously hypertensive rats(SHR) at 7 hours after administration of 150 mg/kg dose perorally;; assay type: functional; settings: route oral
Rattus norvegicus [35] = assay: % decrease in heart norepinephrine in anesthetized spontaneously hypertensive rats(SHR) at 3 hours after administration of 150 mg/kg dose perorally; assay type: functional; settings: route oral
Rattus norvegicus [36] = assay: % decrease in brain norepinephrine in anesthetized spontaneously hypertensive rats(SHR) at 3 hours after administration of 150 mg/kg dose perorally; assay type: functional; settings: route oral
Cavia porcellus = species on record: Cavia porcellus; assay: Inhibition of the isoproterenol response at a dose of 1 x 10e -4M in guinea pig; slight inhibition was found; assay type: functional, organism-based
Rattus norvegicus [37] = assay: % decrease in adrenal epinephrine in anesthetized spontaneously hypertensive rats(SHR) at 24 hours after administration of 75 mg/kg dose perorally; assay type: functional; settings: route oral
Rattus norvegicus [38] = assay: Systolic blood pressure (SBP) in anesthetized spontaneously hypertensive rats(SHR) before administration of 17 mg/kg dose perorally; assay type: functional; settings: route oral
Rattus norvegicus [39] = assay: % decrease in adrenal epinephrine in anesthetized spontaneously hypertensive rats(SHR) at 1 hours after administration of 150 mg/kg dose perorally; assay type: functional; settings: route oral
Rattus norvegicus [40] = assay: % decrease in heart norepinephrine in anesthetized spontaneously hypertensive rats(SHR) at 24 hours after administration of 35 mg/kg dose perorally; value significantly different was control; assay type: functional; settings: route oral
Rattus norvegicus [41] = assay: % decrease in brain norepinephrine in anesthetized spontaneously hypertensive rats(SHR) at 24 hours after administration of 150 mg/kg dose perorally; assay type: functional; settings: route oral
Rattus norvegicus [42] = assay: % decrease in adrenal epinephrine in anesthetized spontaneously hypertensive rats(SHR) at 24 hours after administration of 150 mg/kg dose perorally; assay type: functional; settings: route oral
Rattus norvegicus [43] = assay: Systolic blood pressure (SBP) in anesthetized spontaneously hypertensive rats(SHR) at 7.5 hours after administration of 75 mg/kg dose perorally; assay type: functional; settings: route oral
Rattus norvegicus [44] = assay: % decrease in brain norepinephrine in anesthetized spontaneously hypertensive rats(SHR) at 7 hours after administration of 150 mg/kg dose perorally; assay type: functional; settings: route oral
Rattus norvegicus [45] = assay: % decrease in brain norepinephrine in anesthetized spontaneously hypertensive rats(SHR) at 24 hours after administration of 35 mg/kg dose perorally; assay type: functional; settings: route oral
Rattus norvegicus [46] = assay: % decrease in systolic blood pressure (SBP) in anesthetized spontaneously hypertensive rats(SHR) after administration of 150 mg/kg dose perorally; settings: route oral
Rattus norvegicus [47] = assay: % decrease in brain norepinephrine in anesthetized spontaneously hypertensive rats(SHR) at 1 hours after administration of 150 mg/kg dose perorally; assay type: functional; settings: route oral
Rattus norvegicus [48] = assay: % decrease in heart norepinephrine in anesthetized spontaneously hypertensive rats(SHR) at 24 hours after administration of 75 mg/kg dose perorally; assay type: functional; settings: route oral
Rattus norvegicus [49] = assay: % decrease in adrenal epinephrine in anesthetized spontaneously hypertensive rats(SHR) at 24 hours after administration of 35 mg/kg dose perorally; assay type: functional; settings: route oral
Rattus norvegicus [50] = assay: % decrease in heart norepinephrine in anesthetized spontaneously hypertensive rats(SHR) at 1 hours after administration of 150 mg/kg dose perorally; assay type: functional; settings: route oral
Rattus norvegicus [51] = assay: Systolic blood pressure (SBP) in anesthetized spontaneously hypertensive rats(SHR) at 7.5 hours after administration of 17 mg/kg dose, perorally; percentage falls in systolic blood pressure were not statistically signific ant; assay type: functional, organism-based; parameters: dose 17 mg/kg; settings: Artery
Rattus norvegicus [52] = assay: % decrease in adrenal epinephrine in anesthetized spontaneously hypertensive rats(SHR) at 7 hours after administration of 150 mg/kg dose perorally; assay type: functional; settings: route oral

With CCCNCC(O)COc1ccc2c(=O)cc(-c3ccccc3)oc2c1 (stereo not drawn) [FLAVODILOL] the Decrease (Rattus norvegicus [1]) was -6%, the “Decrease in heart norepinephrine” value (Rattus norvegicus [2]) was 21% and the “Decrease in hypothalamus norepinephrine” value (Rattus norvegicus [3]) was 6%. For the same compound, the “Decrease in heart norepinephrine” value (Rattus norvegicus [4]) was 94%, the % decrease SBP (Rattus norvegicus [5]) was 6% and the “Decrease in Systolic blood pressure” value (Rattus norvegicus [6]) was 27%. The “Decrease in heart norepinephrine” value (Rattus norvegicus [7]) was 38%, the Decrease (Rattus norvegicus [8]) was 31% and the Ki (Adrenergic receptor beta) was 0.004 µM. The Systolic blood pressure (Rattus norvegicus [9]) was 203, the “Decrease in Systolic blood pressure” value (Rattus norvegicus [10]) was 32% and the “Decrease in hypothalamus norepinephrine” value (Rattus norvegicus [11]) was 0%. For the same compound, the “% decrease hypothalamus DA” value (Rattus norvegicus [12]) was 37%, the Systolic blood pressure (Rattus norvegicus [13]) was 196 and the Decrease (Rattus norvegicus [14]) was 38%. For the same compound, the % decrease SBP (Rattus norvegicus [15]) was 31%, the “Decrease in heart norepinephrine” value (Rattus norvegicus [16]) was 79% and the “Decrease in heart norepinephrine” value (Rattus norvegicus [17]) was 89%. The Decrease (Rattus norvegicus [18]) was 11%, the “Decrease in hypothalamus norepinephrine” value (Rattus norvegicus [19]) was 2% and the Systolic blood pressure (Rattus norvegicus [20]) was 199. The “Decrease in hypothalamus norepinephrine” value (Rattus norvegicus [21]) was 19%, the % decrease SBP (Rattus norvegicus [22]) was 7% and the Decrease (Rattus norvegicus [23]) was 61%. For the same compound, the Decrease (Rattus norvegicus [24]) was 4%, the % decrease SBP (Rattus norvegicus [25]) was 3% and the Decrease (Rattus norvegicus [26]) was 49%. For the same compound, the “Decrease in Systolic blood pressure” value (Rattus norvegicus [27]) was 15%, the Decrease (Rattus norvegicus [28]) was 63% and the Decrease (Rattus norvegicus [29]) was -10%. For the same compound, the “Decrease in hypothalamus norepinephrine” value (Rattus norvegicus [30]) was 15%.
CC(C)NCC(O)COc1ccc2c(=O)cc(-c3ccccc3)oc2c1 (stereo not drawn) gave a Decrease (Rattus norvegicus [31]) of 4%, a Decrease (Rattus norvegicus [32]) of 2% and a Decrease (Rattus norvegicus [33]) of 100%. For the same compound, the Decrease (Rattus norvegicus [34]) was 100%, the Decrease (Rattus norvegicus [35]) was 71% and the Decrease (Rattus norvegicus [36]) was 2%. For the same compound, the Activity (Cavia porcellus) was “Weak activity”, the Decrease (Rattus norvegicus [37]) was 23% and the Systolic blood pressure (Rattus norvegicus [38]) was 203. The “Decrease in Systolic blood pressure” value (Rattus norvegicus [6]) was 21%, the Ki (Adrenergic receptor beta) was 12 µM and the Systolic blood pressure (Rattus norvegicus [9]) was 208. The Decrease (Rattus norvegicus [39]) was 10%, the Decrease (Rattus norvegicus [40]) was 57% and the % decrease SBP (Rattus norvegicus [15]) was 16%. For the same compound, the Decrease (Rattus norvegicus [41]) was 14%, the Decrease (Rattus norvegicus [42]) was 39% and the “Decrease in Systolic blood pressure” value (Rattus norvegicus [43]) was 27%. It also gave a Decrease (Rattus norvegicus [44]) of 10%, a Decrease (Rattus norvegicus [45]) of -4% and a % decrease SBP (Rattus norvegicus [46]) of 33%. It also gave a Decrease (Rattus norvegicus [47]) of 0%, a Decrease (Rattus norvegicus [48]) of 100% and a Decrease (Rattus norvegicus [49]) of 17%. For the same compound, the Decrease (Rattus norvegicus [50]) was 40%, the “Decrease in Systolic blood pressure” value (Rattus norvegicus [51]) was “inactive” and the Decrease (Rattus norvegicus [52]) was 16%.
